The assay has as its target FAK (Homo sapiens (Human), UniProt Q05397). The experiment in a line: FAK Degradation Assay (Western blot, FAK/GAPDH). Format: cell-based. Particulars: MDA-MB-231 cells, 24 h treatment, Western blot normalized to DMSO; for DC50: read-out: DC50 (half-maximal degradation concentration), FAK Degradation; for Dmax: read-out: Dmax (maximal degradation), FAK Degradation. How it is done: H2122 (4×10^5), MIA PaCa-2 (6×10s), or MDA-MB-231 cells (6×10^5) per well were seeded into a 6-well plate containing 2 mL of complete culture medium (RPMI-1640 for H2122 and MDA-MB-231, and DMEM/F12 for MIA PaCa-2, supplemented with 10% FBS and 1% penicillin/streptomycin). The cells were cultured overnight at 37° C. in the presence of 5% C02 before treated with a compound in a series of concentrations for 24 h. The cells were then washed with ice-cold Dulbecco's phosphate-buffered saline (DPBS). A radioimmuno-precipitation assay (RIPA) buffer was added to lyse the cells on ice for 20 min. The cells were then scrapped using cell scraper and collected in a 1.5 mL tube, which was centrifuged at 14,000 g and 4° C. for 15 min. The supernatant was collected and the total protein concentration of each sample was determined using a PIERCE™ BCA protein assay kit. The supernatant was diluted to the same protein concentration with the RIPA buffer after the BCA assay. Samples of the same protein amount were mixed with 4× a lithium dodecyl sulfate (LDS) sample buffer and boiled at 95° C. for 5 min. The denatured samples were used for electrophoresis.
For Western blot, the same volume containing ˜50 μg protein for each sample was loaded onto 4-12% Bis-Tris protein gel. The gel was run at 80 V for 0.5 h and at 120 V for 1 h. When the electrophoresis was completed, an IBLOT™ 2 gel transfer device was used to transfer FAK and GAPDH proteins at 20 V for 7 min. All the membranes were blocked in 5% nonfat dry milk in a TBST buffer at RT for 1 h and then incubated with primary antibodies (anti-FAK and anti-GAPDH) in a TBST buffer containing 5% BSA at 4° C. overnight. The membranes were washed with the TBST buffer and then incubated with secondary antibodies (goat anti-rabbit IgG H&L for FAK and goat anti-mouse IgG H&L for GAPDH) at room temperature for 1 h. Blots were visualized using an IMAGEQUANT™ LAS-4000. The chemiluminescent signals from ECL™ Western blotting reagents were captured. The band integrated intensity from each 16-bit blot image was used for quantitation. The FAK/GAPDH signal ratios of each sample were normalized using DMSO as a control and the normalized data for each compound were used to obtain its half-maximal degradation concentration (DC50) and maximal degradation (Dmax).
In general terms: In western blotting, separated proteins are transferred to a membrane and probed.

Drawing on patent US20250214967A1, “FAK DEGRADERS, PHARMACEUTICAL COMPOSITIONS, AND THERAPEUTIC APPLICATIONS” (Berrybio (Shanghai) Limited, priority 2022, published 2025), this text covers DC50 and Dmax for 14 molecules.

The structures appear in SMILES notation.

Sequence of FAK (Q05397 whole entry): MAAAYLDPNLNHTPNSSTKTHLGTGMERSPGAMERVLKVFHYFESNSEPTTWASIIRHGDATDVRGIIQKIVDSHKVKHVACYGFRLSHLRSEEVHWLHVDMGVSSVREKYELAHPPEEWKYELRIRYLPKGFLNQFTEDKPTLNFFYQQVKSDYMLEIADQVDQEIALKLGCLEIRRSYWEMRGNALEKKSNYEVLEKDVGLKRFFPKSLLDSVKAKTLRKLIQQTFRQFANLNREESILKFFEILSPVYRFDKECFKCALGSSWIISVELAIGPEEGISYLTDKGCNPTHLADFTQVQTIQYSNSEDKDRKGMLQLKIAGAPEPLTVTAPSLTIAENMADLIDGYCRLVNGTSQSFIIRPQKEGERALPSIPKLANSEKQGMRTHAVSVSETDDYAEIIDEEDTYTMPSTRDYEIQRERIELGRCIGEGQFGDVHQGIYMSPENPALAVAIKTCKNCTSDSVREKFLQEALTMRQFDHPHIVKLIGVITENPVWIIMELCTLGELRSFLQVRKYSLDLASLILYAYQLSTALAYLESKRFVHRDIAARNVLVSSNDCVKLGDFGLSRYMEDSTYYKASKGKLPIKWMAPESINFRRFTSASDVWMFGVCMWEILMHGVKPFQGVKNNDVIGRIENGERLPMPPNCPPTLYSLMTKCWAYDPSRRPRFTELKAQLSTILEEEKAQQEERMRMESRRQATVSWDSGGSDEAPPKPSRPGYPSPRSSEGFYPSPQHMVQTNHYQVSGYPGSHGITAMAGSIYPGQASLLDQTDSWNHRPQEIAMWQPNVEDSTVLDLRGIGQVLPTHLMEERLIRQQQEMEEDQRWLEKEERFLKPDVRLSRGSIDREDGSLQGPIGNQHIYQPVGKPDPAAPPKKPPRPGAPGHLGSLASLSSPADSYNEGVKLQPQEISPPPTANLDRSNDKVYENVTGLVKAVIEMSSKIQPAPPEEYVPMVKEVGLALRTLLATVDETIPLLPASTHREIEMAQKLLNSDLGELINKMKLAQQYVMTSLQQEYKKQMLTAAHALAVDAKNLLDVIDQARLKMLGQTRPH

As usually defined, the Dmax is the greatest extent of degradation seen. Take `CN(c1ccccc1CNc1cc(Nc2ccc(CNC3CN(c4ccc5c(c4)C(=O)N(C4CCC(=O)NC4=O)C5=O)C3)cc2)ncc1C(F)(F)F)S(C)(=O)=O` (stereo not shown) [Compound A19, N-(2-(((2-((4-(((1-(2-(2,6-Dioxopiperidin-3-yl)-1,3-dioxoisoindolin-5-yl)azetidin-3-yl)amino)methyl)phenyl)amino)-5-(trifluoromethyl)pyridin-4-yl)amino)methyl)phenyl)-N-methylmethanesulfonamide]: the DC50 turned out to be 2.8 nM and the greatest degradation seen (Dmax) was 96%.
In the same order, the values of `CN(c1ccccc1CNc1cc(Nc2ccc(CNC3CCN(c4ccc5c(c4)C(=O)N(C4CCC(=O)NC4=O)C5=O)CC3)c(F)c2)ncc1C(F)(F)F)S(C)(=O)=O` (stereo not shown) [Compound A35, N-(2-(((2-((4-(((1-(2-(2,6-Dioxopiperidin-3-yl)-1,3-dioxoisoindolin-5-yl)-piperidin-4-yl)amino)methyl)-3-fluorophenyl)amino)-5-(trifluoromethyl)pyridin-4-yl)amino)-methyl)phenyl)-N-methylmethanesulfonamide] are 8.1 nM and 95%.
In the same order, the values of `CNC(=O)c1ccccc1Nc1nc(Nc2ccc(CN[C@@H]3CCN(c4ccc5c(c4)C(=O)N(C4CCC(=O)NC4=O)C5=O)C[C@@H]3F)cc2)ncc1C(F)(F)F` (stereo partly drawn) [Compound A39, 2-((2-((4-((((3S,4R)-1-(2-(2,6-Dioxopiperidin-3-yl)-1,3-dioxoisoindolin-5-yl)-3-fluoropiperidin-4-yl)amino)methyl)phenyl)amino)-5-(trifluoromethyl)pyrimidin-4-yl)amino)-N-methylbenzamide] are 0.71 nM and 89%.
On the same counts, the results for `CN(c1ccccc1CNc1cc(Nc2ccc(C(=O)NC3CCN(c4ccc5c(c4)C(=O)N(C4CCC(=O)NC4=O)C5=O)CC3)cc2)ncc1C(F)(F)F)S(C)(=O)=O` (stereo not shown) [Compound A15, N-(1-(2-(2,6-dioxopiperidin-3-yl)-1,3-dioxoisoindolin-5-yl)piperidin-4-yl)-4-((4-((2-(N-methylmethylsulfonamido)benzyl)amino)-5-(trifluoromethyl)pyridin-2-yl)amino)-benzamide] are 2.6 nM and 93%.
For the molecule `CNC(=O)c1ccccc1Nc1nc(Nc2ccc(CCN3CCN(c4ccc5c(c4)C(=O)N(C4CCC(=O)NC4=O)C5=O)CC3)c(F)c2)ncc1C(F)(F)F` (stereo not shown) [Compound A44, 2-((2-((4-(2-(4-(2-(2,6-dioxopiperidin-3-yl)-1,3-dioxoisoindolin-5-yl)piperazin-1-yl)ethyl)-3-fluorophenyl)amino)-5-(trifluoromethyl)pyrimidin-4-yl)amino)-N-methylbenzamide], the DC50 is 0.96 nM and the Dmax amounted to 92%.
In the same order, the values of `CN1Cc2cccc(Oc3nc(Nc4ccc(CN[C@@H]5CCN(c6ccc7c(c6)C(=O)N(C6CCC(=O)NC6=O)C7=O)C5)c(F)c4)ncc3C(F)(F)F)c2C1=O` (stereo partly drawn) [Compound A57, 2-(2,6-Dioxopiperidin-3-yl)-5-((R)-3-((2-fluoro-4-((4-((2-methyl-3-oxoisoindolin-4-yl)oxy)-5-(trifluoromethyl)pyrimidin-2-yl)amino)benzyl)amino)pyrrolidin-1-yl)isoindoline-1,3-dione] are 1 nM and 86%.
`CN(c1nccnc1CNc1nc(Nc2ccc(OCCCCCCCOc3ccc4c(c3)C(=O)N(C3CCC(=O)NC3=O)C4=O)cc2)ncc1C(F)(F)F)S(C)(=O)=O` (stereo not shown) [Compound A9, N-(3-(((2-((4-((7-((2-(2,6-Dioxopiperidin-3-yl)-1,3-dioxoisoindolin-5-yl)oxy)-heptyl)oxy)phenyl)amino)-5-(trifluoromethyl)pyrimidin-4-yl)amino)methyl)pyrazin-2-yl)-N-methylmethanesulfonamide]: the DC50 turned out to be 14 nM and the Dmax came to 100%.
In the same order, the values of `CNC(=O)c1ccccc1Nc1cc(Nc2ccc(CN[C@H]3CCN(c4ccc5c(c4)C(=O)N(C4CCC(=O)NC4=O)C5=O)C3)cc2)ncc1C(F)(F)F` (stereo partly drawn) [Compound A33, 2-((2-((4-((((3S)-1-(2-(2,6-Dioxopiperidin-3-yl)-1,3-dioxoisoindolin-5-yl)-pyrrolidin-3-yl)amino)methyl)phenyl)amino)-5-(trifluoromethyl)pyridin-4-yl)amino)-N-methylbenzamide] are 0.86 nM and 94%.
On the same counts, the results for `CN(c1nccnc1CNc1nc(Nc2cccc(C(=O)NC3CCN(c4ccc5c(c4)C(=O)N(C4CCC(=O)NC4=O)C5=O)CC3)c2)ncc1C(F)(F)F)S(C)(=O)=O` (stereo not shown) [Compound A12, N-(1-(2-(2,6-dioxopiperidin-3-yl)-1,3-dioxoisoindolin-5-yl)piperidin-4-yl)-3-((4-(((3-(N-methylmethylsulfonamido)pyrazin-2-yl)methyl)amino)-5-(trifluoromethyl)pyrimidin-2-yl)amino)benzamide] are 5.6 nM and 98%.
In the same order, the values of `COc1cc(CNC2CCN(c3ccc4c(c3)C(=O)N(C3CCC(=O)NC3=O)C4=O)CC2)c(F)cc1Nc1ncc(C(F)(F)F)c(Oc2cccc3c2C(=O)N(C)C3)n1` (stereo not shown) [Compound A52, 2-(2,6-Dioxopiperidin-3-yl)-5-(4-((2-fluoro-5-methoxy-4-((4-((2-methyl-3-oxoisoindolin-4-yl)oxy)-5-(trifluoromethyl)pyrimidin-2-yl)amino)benzyl)amino)piperidin-1-yl)-isoindoline-1,3-dione] are 0.78 nM and 95%.
Regarding `CNC(=O)c1ccccc1Nc1cc(Nc2ccc3c(c2)CC(=O)N3CC2CCN(c3ccc4c(c3)C(=O)N(C3CCC(=O)NC3=O)C4=O)CC2)ncc1C(F)(F)F` (stereo not shown) [Compound A17, 2-((2-((1-((1-(2-(2,6-Dioxopiperidin-3-yl)-1,3-dioxoisoindolin-5-yl)piperidin-4-yl)methyl)-2-oxoindolin-5-yl)amino)-5-(trifluoromethyl)pyridin-4-yl)amino)-N-methyl-benzamide], the DC50 amounted to 1.7 nM and the Dmax is 88%.
On the same counts, the results for `CN(c1nccnc1CNc1nc(Nc2ccc(CNC3CCN(c4ccc(C5CCC(=O)NC5=O)cc4)CC3)cc2)ncc1C(F)(F)F)S(C)(=O)=O` (stereo not shown) [Compound B1, N-(3-(((2-((4-(((1-(4-(2,6-Dioxopiperidin-3-yl)phenyl)piperidin-4-yl)amino)-methyl)phenyl)amino)-5-(trifluoromethyl)pyrimidin-4-yl)amino)methyl)pyrazin-2-yl)-N-methyl-methanesulfonamide] are 1.2 nM and 92%.
On to `CNC(=O)c1ccccc1Nc1nc(Nc2ccc3c(c2)CC(=O)N3CC2CCN(c3ccc4c(c3)C(=O)N(C3CCC(=O)NC3=O)C4=O)CC2)ncc1C(F)(F)F` (stereo not shown) [Compound A38, 2-((2-((1-((1-(2-(2,6-dioxopiperidin-3-yl)-1,3-dioxoisoindolin-5-yl)piperidin-4-yl)methyl)-2-oxoindolin-5-yl)amino)-5-(trifluoromethyl)pyrimidin-4-yl)amino)-N-methylbenzamide], for which the DC50 stood at 0.84 nM and the Dmax came out at 88%.
In the case of `CN(c1ccccc1CNc1cc(Nc2ccc(CNC3CCN(c4ccc5c(c4)C(=O)N(C4CCC(=O)NC4=O)C5=O)CC3)cc2)ncc1C(F)(F)F)S(C)(=O)=O` (stereo not shown) [Compound A14, N-(2-(((2-((4-(((1-(2-(2,6-dioxopiperidin-3-yl)-1,3-dioxoisoindolin-5-yl)piperidin-4-yl)amino)methyl)phenyl)amino)-5-(trifluoromethyl)pyridin-4-yl)amino)methyl)phenyl)-N-methylmethanesulfonamide], the DC50 was found to be 10 nM and the Dmax was found to be 93%.
